Results from patent US12558329B2 (New York University, priority 2021, dated 2026).
“Also recorded” adds a separate entry of the source.

Tested on: MIAPACA2 cells
Experiment: 18O2-GASSP labelling of MIAPACA2 cells treated with MG132, IOX1, DFO or ascorbate
Assay type: cell-based, human
Experimental: As additional controls, MIAPACA2 cells were treated with an iron chelator (DFO, FIG. 5E-5F), a proteasome inhibitor (MG132) to induce proteotoxic stress, and physiological levels of ascorbate, an antioxidant, to determine the effects of ROS on ^18O-labelling. Labelling of ^18O γ-butyrobetaine was blocked by IOX1 and DFO, consistent with the fact that trimethyllysine hydroxylase (TMLH) is an iron-dependent dioxygenase (FIGS. 7A-7D). […] Total levels of ^18O labelled methionine sulfoxide increased upon MG132 treatment and decreased following ascorbate treatment (FIGS. 7I-7M)^10.
All steps involved in setting up labelling with ^18O2 were performed at room temperature and inside a chemical fume hood. The procedure may vary depending on the type and number of tissue culture plates in the chamber and the amount of media in the plates. Users must test the system by using ^16O2:CO2:N2 or other unlabelled gases to optimize conditions for their needs and avoid consumption of costly labelled gases. Cells were treated with or without 5 μM MG132, 500 μM IOX1, 250 μM DFO, or 70 μM ascorbate, before placing tissue culture plates into the modular incubator chamber (MIC) containing a wireless oxygen sensor and a 15 cm dish of water to maintain humidity. Next, the clamps were closed to form an air-tight seal between the lid and platform of the MIC. […] N2 flushing was repeated for a total of three times, or until the sensor in the chamber stabilized at 0% O2 for 10 minutes.
Next, the inlet valve was opened and the ^18O2:5% CO2:N2 gaseous mixture was flushed into the system at a rate of 2.5 L/min. Subsequently, the outlet valve was immediately opened to allow gas flow out of the chamber, and to release the pressure in the system. The chamber was injected with the ^18O2:5% CO2:N2 gaseous mixture for 1 minute before the inlet and outlet valves were closed simultaneously. The chamber was allowed to equilibrate for 5 minutes. This process was repeated seven times, or until the desired oxygen concentration was reached and was stable. For 3%, 1%, and 0.2% ^18O2 labelling studies, the chamber was infused with 5%:5%:90%, 1.5%:5%:93.5%, and 0.5%:5%:94.5% ^18O2:CO2:N2, respectively. The ^18O2-infused MIC was then placed in a 37° C., 5% CO2 tissue culture incubator for 24 hours. The oxygen concentration in the chamber was monitored regularly. Oxygen measurements after 20 hours was not feasible due to the battery life of the sensor. At the end of the experiment, the chamber was opened inside a chemical fume hood before metabolite extraction.
For metabolomics, briefly, cells were washed in 4° C. 0.9% saline and metabolites were extracted with 46% methanol:23% H2O:[…] chloroform that contained a labelled amino acid standard mix (MSK-A2-1.2, Cambridge Isotope Laboratories, Inc.). Enzymatic assay samples were extracted using 80% methanol: 20% H2O that contained labelled amino acid standards. Extracts were placed into 1.5 mL Eppendorf tubes, vortexed at 4° C. for 10 min and centrifuged at 4° C. for 10 min at 17,200×g in a microcentrifuge. The aqueous phase was transferred to vials for GC-MS or Eppendorf tubes for LC-MS. Polar samples were evaporated in a SpeedVac and samples were resolved by GC-MS or LC-MS. Lipid samples were dried using a stream of N2 (for ^18O labelling studies) or air. Metabolite and lipid extracts were submitted to the NYULMC Metabolomics Core Resource Laboratory.
For polar metabolomics, the LC column was a Millipore ZIC-pHILIC (2.1×150 […], 5 μm bead size) coupled to a Dionex UltiMate 3000 system. The column oven temperature was held at 25° C. The flow rate was 100 μL/min, and the injection volume was 1 μL. Buffer A was 10 mM ammonium carbonate in water, pH 9, and Buffer B was neat acetonitrile. The gradient profile was 80-20% B (0-30 min), 20-80% B (30-31 min), and 80-80% B (31-42 min). MS Analyses were carried out on a Thermo Q Exactive HF mass spectrometer using a heated electrospray ionization (HESI) source. […]

## O=C(O)c1ccc(O)c2ncccc12 [IOX1]
3%, 1%, 0.2% 18O2, 24 hours
  18O labelling of methionine: sensitive; also recorded: blocked
  18O labelling of γ-butyrobetaine: sensitive; also recorded: blocked
MIAPACA2, 3%, 1%, 0.2% 18O2, 24 hours, 500 μM IOX1, 250 μM DFO
  18O labelling of 4-HMA: sensitive; also recorded: significantly attenuated
MIAPACA2, 18O2 labelling, 24 hours, 500 μM IOX1, 250 μM DFO, 70 μM ascorbate
  4-HMA levels: significantly attenuated
